Publication PMC4742234, “Screening of Drug Metabolizing Enzymes for the Ginsenoside Compound K In Vitro: An Efficient Anti-Cancer Substance Originating from Panax Ginseng” (PLoS ONE, 2016)
Entries after “also recorded” stand apart in the source; their conditions may differ.

Experiments:
[1] = target: T1, CYP2E1 (Homo sapiens, UniProt P05181); assay: Inhibition of CYP2E1 (chlorzoxazone 6-hydroxylation) by CK in HLMs; assay type: in vitro ADME
T1 construct: tissue Cypex Ltd. (U.K.); host or cells: pooled human liver microsomes
Protocol: (§1) The method was conducted according to our previous study with some modifications. The CYP isoform-specific probe reactions used were phenacetin O-deethylation (for CYP1A2), coumarin 7-hydroxylation (for CYP2A6), tolbutamide 4-hydroxylation (for CYP2C9), metoprolol α-hydroxylation (for CYP2D6), chlorzoxazone 6-hydroxylation (for CYP2E1),S-Mephenytoin 4-hydroxylation (for CYP2C19), and midazolam 1-hydroxylation (for CYP3A4). The kinetic study of CK was conducted with HLMs. A 0.2 mL incubation mixture that consisted of CK (as a substrate), the HLMs (0.5 mg/mL) or CYP isoforms (10 pmol), and 0.1 M sodium phosphate buffer (pH 7.4) was pre-warmed for 5 min at 37°C. The reaction was initiated by the addition of 1 mg/mL triphosphopyridine nucleotide (NADPH). All the reagents were dissolved in methanol, and the final solvent concentration in all incubations (including the controls) was 1%. The final incubations were performed in a shaking water bath (37°C) for 30 min. The reactions were stopped by adding 0.2 mL ice-cold acetonitrile, which contains irbesartan (114.9 ng/mL) as the internal standard. The samples were vortexed for 5 min. After centrifugation (12000×g for 10 min), the supernatants were transferred, and aliquots of 20 μL were injected into the HPLC-MS/MS system for analysis.
(§2) CK (10–100 μM) and a single CYP isoform-specific substrate (with a concentration similar to its corresponding Kmvalue) were used to determine the inhibitory effect of CK on specific CYP isoforms as described in detail previously. Substrates including phenacetin, coumarin, tolbutamide, metoprolol, chlorzoxazone, S-Mephenytoin, and midazolam were used at concentrations of 10, 5, 100, 7.5, 40, 100, and 5 μM, respectively. All incubation conditions were the same as mentioned above. The inhibitory effects on the CYP isoforms were investigated individually by incubating the HLMs in the absence or presence of CK. […]

[2] = target: CYP2C9 (Homo sapiens, UniProt P11712); assay: Inhibition of CYP2C9 (tolbutamide 4-hydroxylation) by CK in HLMs; assay type: in vitro ADME; design: tissue Cypex Ltd. (U.K.); host or cells: pooled human liver microsomes
Protocol: as §1
CK (10–100 μM) and a single CYP isoform-specific substrate (with a concentration similar to its corresponding Kmvalue) were used to determine the inhibitory effect of CK on specific CYP isoforms as described in detail previously. Substrates including phenacetin, coumarin, tolbutamide, metoprolol, chlorzoxazone, S-Mephenytoin, and midazolam were used at concentrations of 10, 5, 100, 7.5, 40, 100, and 5 μM, respectively. All incubation conditions were the same as mentioned above. The inhibitory effects on the CYP isoforms were investigated individually by incubating the HLMs in the absence or presence of CK. The incubation solution with the solvent that was used to dissolve CK was regarded as the negative control, and the solutions containing the specific inhibitors mentioned above were considered the positive controls.
Therefore, Dixon plots for the inhibition of CYP2C9 and CYP3A4 were determined by incubating the substrate probe at multiple concentrations with or without the test inhibitor with the HLMs and cofactors. The inhibition data obtained from the pilot experiments were used as a guide to generate the appropriate probe substrate and test inhibitor concentrations for the determination of the Ki values for each CYP isoform. The isoform-specific probe substrate concentrations used were 25–200 μM tolbutamide for CYP2C9 and 5–50 μM midazolam for CYP3A4. The CK concentrations used were 10–100 μM.
Therefore, we used S/V versus [I] plots to determine the Ki’ values for the inhibition of CYP2C9 and CYP3A4. When Ki>Ki’, the intersection was above the [I] axis in the plot of S/V against [I] and below it in the Dixon plot; the opposite was true if Ki<Ki’. In the special case where Ki = Ki’ (simple non-competitive inhibition), the intersections occurred on the [I] axis in both plots. The asymptotic cases of competitive and uncompetitive inhibition can be generated by inserting the conditions Ki’ to ∞ for competitive inhibition, or Ki to ∞ for uncompetitive inhibition.
As described in detail previously, to determine the major enzymes responsible for the CK metabolism in HLMs, the metabolic clearance rate of the incubation solution without any specific inhibitor for CK was considered as 100%. The effects of the specific inhibitors on the metabolic clearance rate of CK were evaluated with SPSS one-way analysis of variance (SPSS Inc., Chicago, IL, USA). P<0.05 was considered significant in all cases. The apparent kinetic parameters of CK (Km and Vmax) were determined by fitting the Michaelis–Menten equation using the GraphPad Prism Enzyme Kinetic 5 Demo software (GraphPad Co. Ltd, San Diego, CA, USA). […]

[3] = tested on: CYP1A2, CYP2A6, CYP2D6, CYP2E1, CYP2C19; assay: Effect of the other specific inhibitors on CK metabolism in HLMs; assay type: in vitro ADME, human; conditions: CK 50 μM, furafylline, tranylcypromine, quinidine, ticlopidine 1 μM, chlormethiazole 5 μM
Protocol: The method was conducted according to our previous study with some modifications. The CYP isoform-specific probe reactions used were phenacetin O-deethylation (for CYP1A2), coumarin 7-hydroxylation (for CYP2A6), tolbutamide 4-hydroxylation (for CYP2C9), metoprolol α-hydroxylation (for CYP2D6), chlorzoxazone 6-hydroxylation (for CYP2E1),S-Mephenytoin 4-hydroxylation (for CYP2C19), and midazolam 1-hydroxylation (for CYP3A4). The kinetic study of CK was conducted with HLMs. A 0.2 mL incubation mixture that consisted of CK (as a substrate), the HLMs (0.5 mg/mL) or CYP isoforms (10 pmol), and 0.1 M sodium phosphate buffer (pH 7.4) was pre-warmed for 5 min at 37°C. The reaction was initiated by the addition of 1 mg/mL triphosphopyridine nucleotide (NADPH). […]
To screen the specific CYP isoform responsible for the CK metabolism, we determined the inhibitory effect of specific inhibitors on the metabolism of CK in the HLMs as described in detail previously. […] The inhibitory effects of the above specific inhibitors on the metabolic clearance rate of CK were evaluated separately to screen the CYP isoforms responsible for the CK metabolism. The relative activity of the CYP isoforms was calculated by dividing the peak area of CK when incubated with the inhibitor by that of CK from the negative controls. […]

[4] = target: T2, CYP2D6 (Homo sapiens, UniProt P10635); assay: Inhibition of CYP2D6 (metoprolol α-hydroxylation) by CK in HLMs; assay type: in vitro ADME
T2 construct: tissue Cypex Ltd. (U.K.); host or cells: pooled human liver microsomes
Protocol: as §1, §2

[5] = classified by IC50 according to Kong et al
[6] = CYP2C9 in HLMs, sulfaphenazole values ref 15, 16

T1 sequence (P05181 whole entry): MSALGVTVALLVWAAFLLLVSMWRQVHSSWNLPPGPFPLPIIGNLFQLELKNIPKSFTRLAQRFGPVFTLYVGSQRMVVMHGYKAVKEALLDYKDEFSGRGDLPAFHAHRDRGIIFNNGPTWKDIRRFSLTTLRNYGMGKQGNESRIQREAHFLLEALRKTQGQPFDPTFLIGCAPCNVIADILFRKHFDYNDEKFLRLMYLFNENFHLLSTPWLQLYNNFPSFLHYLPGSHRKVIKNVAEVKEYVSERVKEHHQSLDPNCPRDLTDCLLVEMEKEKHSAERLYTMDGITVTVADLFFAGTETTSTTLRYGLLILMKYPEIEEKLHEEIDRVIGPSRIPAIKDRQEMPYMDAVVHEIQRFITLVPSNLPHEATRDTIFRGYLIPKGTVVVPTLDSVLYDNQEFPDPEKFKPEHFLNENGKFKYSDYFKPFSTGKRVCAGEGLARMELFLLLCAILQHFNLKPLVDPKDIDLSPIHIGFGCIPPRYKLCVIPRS
Chain of CYP2C9 (P11712 whole entry): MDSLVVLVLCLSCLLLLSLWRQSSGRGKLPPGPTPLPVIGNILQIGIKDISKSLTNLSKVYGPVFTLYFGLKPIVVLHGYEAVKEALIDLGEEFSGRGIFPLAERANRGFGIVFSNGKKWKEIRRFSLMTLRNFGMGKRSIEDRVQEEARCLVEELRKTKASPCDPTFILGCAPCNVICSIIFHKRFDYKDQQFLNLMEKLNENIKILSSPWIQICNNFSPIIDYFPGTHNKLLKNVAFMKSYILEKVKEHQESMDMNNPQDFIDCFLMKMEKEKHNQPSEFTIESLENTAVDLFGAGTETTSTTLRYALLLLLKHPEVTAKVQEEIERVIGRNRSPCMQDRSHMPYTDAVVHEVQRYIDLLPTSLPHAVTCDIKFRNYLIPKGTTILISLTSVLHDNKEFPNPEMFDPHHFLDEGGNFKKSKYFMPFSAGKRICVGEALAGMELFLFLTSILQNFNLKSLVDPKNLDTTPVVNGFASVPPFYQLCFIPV
T2 sequence (P10635 whole entry): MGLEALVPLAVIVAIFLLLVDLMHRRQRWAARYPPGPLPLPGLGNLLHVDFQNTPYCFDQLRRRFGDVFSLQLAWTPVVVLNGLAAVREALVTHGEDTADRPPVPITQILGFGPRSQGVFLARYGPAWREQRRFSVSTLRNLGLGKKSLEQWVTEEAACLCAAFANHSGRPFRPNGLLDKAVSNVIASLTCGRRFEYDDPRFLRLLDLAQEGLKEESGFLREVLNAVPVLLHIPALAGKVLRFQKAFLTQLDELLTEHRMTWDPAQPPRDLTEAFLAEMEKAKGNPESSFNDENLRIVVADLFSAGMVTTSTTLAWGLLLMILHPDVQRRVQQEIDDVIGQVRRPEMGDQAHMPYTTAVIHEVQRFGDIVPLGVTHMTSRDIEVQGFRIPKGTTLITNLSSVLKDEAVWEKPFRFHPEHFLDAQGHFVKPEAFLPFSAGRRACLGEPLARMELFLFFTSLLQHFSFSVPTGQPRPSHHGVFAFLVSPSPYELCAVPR

CC(C)=CCC[C@](C)(OC1O[C@H](CO)[C@@H](O)[C@H](O)[C@H]1O)[C@H]1CC[C@]2(C)[C@@H]1[C@H](O)C[C@@H]1[C@@]3(C)CC[C@H](O)C(C)(C)[C@@H]3CC[C@]12C (stereo partly drawn) [CK, 20-O-β-(D-glucopyranosyl)-20(S)-protopanaxadiol]
inhibitory effect on the activity of CYP2E1 ([1]; HLMs, CK 10–100 μM): minimal; also recorded: negligible | IC50 ([1]; HLMs, chlorzoxazone 40 μM, CK 10–100 μM): > 100 µM | inhibitor potency class for CYP2E1 [1, 5]: weak (weak, if IC50≥100 μg/mL or ≥50 μM) | IC50 of CK higher than that of sulfaphenazole [2, 6]: 11-53 fold | Ki of CK higher than that of sulfaphenazole [2, 6]: 49 fold | type of inhibition of CYP2C9 ([2]; HLMs, Dixon and S/V versus [I] plots): mixed type | IC50 ([2]; HLMs, tolbutamide 4-hydroxylation, tolbutamide 100 μM, CK 10–100 μM): 16 µM | Ki ([2]; HLMs, tolbutamide 25–200 μM, secondary plot of Lineweaver–Burk slopes): 14.9 µM | inhibitor potency class for CYP2C9 [2, 5]: moderate (moderate, if IC50 20–100 μg/mL or 10–50 μM) | effect of other specific inhibitors / CYP isoforms on CK metabolism [3]: minimal or no effect; also recorded: no obvious inhibitory effects; also recorded: no significant inhibitory effects | inhibitory effect on the activity of CYP2D6 ([4]; HLMs, CK 10–100 μM): minimal; also recorded: negligible | IC50 ([4]; HLMs, metoprolol 7.5 μM, CK 10–100 μM): > 100 µM | inhibitor potency class for CYP2D6 [4, 5]: weak (weak, if IC50≥100 μg/mL or ≥50 μM)
